Structures are written as SMILES.

This assay addresses T1, CCK2 receptor (Homo sapiens, UniProt P32239).
T1 construct: Membranes were prepared from the HEKZFP cells after induction; endogenous in cells; host or cells: HEKZFP cells (T-REx-293 with tet-inducible ZFP-VP16 specific for the CCK2R gene), doxycycline-induced; membrane preparation
T1 sequence (P32239 1-447): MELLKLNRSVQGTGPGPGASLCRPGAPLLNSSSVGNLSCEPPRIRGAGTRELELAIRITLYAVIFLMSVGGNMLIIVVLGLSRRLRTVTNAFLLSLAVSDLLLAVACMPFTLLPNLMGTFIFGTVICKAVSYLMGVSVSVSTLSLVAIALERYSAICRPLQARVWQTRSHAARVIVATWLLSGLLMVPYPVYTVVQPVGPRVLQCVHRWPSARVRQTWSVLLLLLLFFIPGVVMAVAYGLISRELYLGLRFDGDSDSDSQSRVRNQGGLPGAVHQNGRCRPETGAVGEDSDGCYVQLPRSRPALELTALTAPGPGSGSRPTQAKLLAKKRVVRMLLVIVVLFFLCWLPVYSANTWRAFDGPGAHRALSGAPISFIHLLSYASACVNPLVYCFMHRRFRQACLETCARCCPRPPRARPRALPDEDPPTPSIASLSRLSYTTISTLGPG
Kind of assay: CCK2 receptor radioligand binding assay ([125I]-BH-CCK-8S, HEKZFP cell membranes). Conditions: competition with [125I]-BH-CCK-8S, membranes of induced HEKZFP cells, 60 min at 21±3° C., Cheng-Prusoff. As to the method:
Zinc Finger Proteins (ZFP) specific for the CCK2R gene were identified by Sangamo Biosciences. The ZFP domain was fused with the herpes simplex virus VP16 activation domain, and the fusion protein was subsequently cloned into the pcDNA3 mammalian expression vector (Invitrogen, San Diego, Calif.). […] After 2 weeks of selection in culture medium containing […] Zeocin (Invitrogen), sixty drug-resistant stable clones were isolated and analyzed for ZFP expression as well as CCK2R induction upon addition of doxycycline to the culture medium.
HEKZFP cells were grown in DMEM supplemented with L-glutamine (2 mM), penicillin (50 units/mL) and streptomycin (50 μg/mL) and 10% FBS (v/v).
Membranes were prepared from the HEKZFP cells after induction. […] The thawed pellets were homogenized using a Polytron PT-10 (7×1 s). The homogenates were centrifuged for 5 min at 1500 rpm (600×g), and the resulting pellets were discarded. The supernatants were re-centrifuged in order to collect the receptor-membrane pellets (25 min 15,000 rpm; 39,800×g), which were re-suspended in buffer A.
The assay preparation was incubated for 1 h at 21±3° C., and then the assay was terminated by rapid filtration of the preparation under reduced pressure. The loaded filters were washed three times using undiluted PBS (100 μL), and then 100 μL of scintillation fluid was added to the filter plate. Bound radioactivity was determined using a Topcount (Packard BioScience, Meriden, Conn.) with a count time of 1 min. […] To validate the radioligand concentration and incubation time for the assay, saturation and kinetic binding studies were also conducted (see M. F. Morton, The Pharmacological Characterization of Cholecystokinin Receptors in the Human Gastrointestinal Tract. PhD Thesis, University of London, 2000). […] The assay was then terminated according to the procedure outlined above.
The pKi values were determined using the equation of Y.-C.
To circumvent problems associated with computer-assisted data analysis of compounds with low affinity, the data obtained in the current study were weighed according to a method described by Morton. In brief, 100% and 0% specific binding were defined independently using total binding and binding obtained in the presence of a high concentration of the reference antagonist, 2-NAP.
The Ki is a dissociation constant, usually derived from enzyme kinetics or from competition with a known ligand. Lower therefore signals a stronger hold on the target. In turn, `O=C(c1ccc(Cl)cc1NS(=O)(=O)c1cccc2nccnc12)N1CCOc2ccccc2C1` [Example 22, Quinoxaline-5-sulfonic acid [5-chloro-2-(2,3-dihydro-5H-benzo[f][1,4]oxazepine-4-carbonyl)-phenyl]-amide] had a Ki of 158 nM.
The molecule `C[C@@H](NC(=O)c1ccc(Cl)cc1NS(=O)(=O)c1cccc2nccnc12)c1ccc(F)cc1F` [Example 3, (R)-4-Chloro-N-[1-(2,4-difluorophenyl)-ethyl]-2-(quinoxaline-5-sulfonylamino)-benzamide] had a Ki of 12.6 nM.
In turn, `C[C@@H](NC(=O)c1ccc(Cl)cc1NS(=O)(=O)c1cccc2nccnc12)c1ccc(F)cc1` [Example 7, (R)-4-Chloro-N-[1-(4-fluorophenyl)-ethyl]-2-(quinoxaline-5-sulfonylamino)-benzamide] showed a Ki of 31.6 nM.
Under `C[C@@H]1COC[C@H](C)N1C(=O)c1ccc(Br)cc1NS(=O)(=O)c1cccc2nccnc12` [Example 27, meso-Quinoxaline-5-sulfonic acid [2-(3,5-dimethylmorpholine-4-carbonyl)-5-bromophenyl]-amide] stands 316 nM; under `O=C(c1ccc(I)cc1NS(=O)(=O)c1cccc2nccnc12)N1CCCCCC1` [Example 18, Quinoxaline-5-sulfonic acid [2-(azepane-1-carbonyl)-5-iodophenyl]-amide], 63.1 nM; under `C[C@H](c1ccccc1)N(C)C(=O)c1ccc(I)cc1NS(=O)(=O)c1cccc2nccnc12` [Example 34, (R)-4-Iodo-N-methyl-N-(1-phenyl-ethyl)-2-(quinoxaline-5-sulfonylamino)-benzamide], 7.94 nM.
With `O=C(NCc1ccc(F)cc1Cl)c1ccc(Br)cc1NS(=O)(=O)c1cccc2nccnc12` [Example 16, 4-Bromo-N-(2-chloro-4-fluoro-benzyl)-2-(quinoxaline-5-sulfonylamino)-benzamide], affinity was put at a Ki of 39.8 nM.
For the molecule `C[C@H](NC(=O)c1ccc(Cl)cc1NS(=O)(=O)c1cccc2nccnc12)c1ccc(Cl)cc1Cl` [Example 9, (S)-4-Chloro-N-[1-(2,4-dichlorophenyl)ethyl]-2-(quinoxaline-5-sulfonylamino)-benzamide], the Ki was 39.8 nM.
For `O=C(N[C@H](CF)c1ccc(F)cc1F)c1ccc(Br)cc1NS(=O)(=O)c1cccc2nccnc12` [Example 76, (S)-4-Bromo-N-[1-(2,4-difluoro-phenyl)-2-fluoro-ethyl]-2-(quinoxaline-5-sulfonylamino)-benzamide], the Ki was 25.1 nM.
As for `C[C@@H](NC(=O)c1ccc(Cl)cc1NS(=O)(=O)c1cccc2nccnc12)c1ccc(Cl)cc1Cl` [Example 43, (R)-4-Chloro-N-[1-(2,4-dichloro-phenyl)-ethyl]-2-(quinoxaline-5-sulfonylamino)-benzamide], the Ki is 10 nM. Against the preceding molecule, the Ki is about 2.5-fold lower.
With `C[C@H](NC(=O)c1ccc(I)cc1NS(=O)(=O)c1cccc2nccnc12)c1ccc(Cl)cc1Cl` [Example 66, (S)-N-[1-(2,4-Dichloro-phenyl)-ethyl]-4-iodo-2-(quinoxaline-5-sulfonylamino)-benzamide], the Ki was 50.1 nM.
For the molecule `C[C@@H](NC(=O)c1ccc(F)cc1NS(=O)(=O)c1cccc2nccnc12)c1ccc(Cl)cc1Cl` [Example 37, (R)—N-[1-(2,4-Dichlorophenyl)-ethyl]-4-fluoro-2-(quinoxaline-5-sulfonylamino)-benzamide], the Ki is 200 nM.
As for `C[C@H]1COCCN1C(=O)c1ccc(Br)cc1NS(=O)(=O)c1cccc2nccnc12` [Example 28, (S)-Quinoxaline-5-sulfonic acid [5-bromo-2-(3-methylmorpholine-4-carbonyl)-phenyl]-amide], the Ki was 398 nM. Against the preceding molecule, the Ki is about 2-fold higher.
In the case of `O=C(c1ccc(C(F)(F)F)cc1NS(=O)(=O)c1cccc2nccnc12)N1CCOCC1` [Example 92, Quinoxaline-5-sulfonic acid [2-(morpholine-4-carbonyl)-5-trifluoromethyl-phenyl]-amide], the Ki is 79.4 nM.
Consider `O=C(c1ccc(I)cc1NS(=O)(=O)c1cccc2nccnc12)N1CCC(O)CC1` [Example 26, Quinoxaline-5-sulfonic acid [2-(4-hydroxy-piperidine-1-carbonyl)-5-iodo-phenyl]-amide], for which the affinity, expressed as Ki, was 316 nM. This Ki is about 4-fold higher than that of the molecule before.
`CC(NC(=O)c1ccc(I)cc1NS(=O)(=O)c1cccc2nccnc12)c1ccc(F)cc1` (stereo not shown) [Example 54, N-[1-(4-Fluoro-phenyl)-ethyl]-4-iodo-2-(quinoxaline-5-sulfonylamino)-benzamide] had a Ki of 39.8 nM.
Consider `O=C(NC(CF)c1ccc(F)cc1F)c1ccc(I)cc1NS(=O)(=O)c1cccc2nccnc12` (stereo not shown) [Example 75, N-[1-(2,4-Difluoro-phenyl)-2-fluoro-ethyl]-4-iodo-2-(quinoxaline-5-sulfonylamino)-benzamide], for which the affinity, expressed as Ki, was 63.1 nM.
Under `O=C(N[C@H](CF)c1ccc(F)cc1)c1ccc(Cl)cc1NS(=O)(=O)c1cccc2nccnc12` [Example 72, (S)-4-Chloro-N-[2-fluoro-1-(4-fluoro-phenyl)-ethyl]-2-(quinoxaline-5-sulfonylamino)-benzamide] stands 100 nM; under `C[C@@H](NC(=O)c1ccc(I)cc1NS(=O)(=O)c1cccc2nccnc12)c1ccc(F)cc1F` [Example 15, (R)—N-[1-(2,4-Difluorophenyl)-ethyl]-4-iodo-2-(quinoxaline-5-sulfonylamino)-benzamide], 12.6 nM.
In turn, `O=C(N[C@H](CF)c1ccc(F)cc1F)c1ccc(Cl)cc1NS(=O)(=O)c1cccc2nccnc12` [Example 78, (S)-4-Chloro-N-[1-(2,4-difluoro-phenyl)-2-fluoro-ethyl]-2-(quinoxaline-5-sulfonylamino)-benzamide] showed a Ki of 39.8 nM.
Turning to `O=C(c1ccc(I)cc1NS(=O)(=O)c1cccc2nccnc12)N1CCCCC1` [Example 4, Quinoxaline-5-sulfonic acid [5-iodo-2-(piperidine-1-carbonyl)-phenyl]-amide], the Ki was 25.1 nM.
In turn, `O=C(c1ccc(Br)cc1NS(=O)(=O)c1cccc2nccnc12)N1CCOc2cc(F)ccc2C1` [Example 39, Quinoxaline-5-sulfonic acid [5-bromo-2-(8-fluoro-2,3-dihydro-5H-benzo[f][1,4]oxazepine-4-carbonyl)phenyl]-amide] showed a Ki of 79.4 nM.
In the case of `O=C(N[C@H](CF)c1ccc(F)cc1)c1ccc(Br)cc1NS(=O)(=O)c1cccc2nccnc12` [Example 71, (S)-4-Bromo-N-[2-fluoro-1-(4-fluoro-phenyl)-ethyl]-2-(quinoxaline-5-sulfonylamino)-benzamide], the Ki was 79.4 nM.
The molecule `C[C@@H](NC(=O)c1ccc(I)cc1NS(=O)(=O)c1cccc2nccnc12)c1ccc(F)cc1` [Example 63, (R)-N-[1-(4-Fluoro-phenyl)-ethyl]-4-iodo-2-(quinoxaline-5-sulfonylamino)-benzamide] showed a Ki of 31.6 nM.
The figure for `C[C@@H]1COCCN1C(=O)c1ccc(Br)cc1NS(=O)(=O)c1cccc2nccnc12` [Example 12, (R)-Quinoxaline-5-sulfonic acid [5-bromo-2-(3-methylmorpholine-4-carbonyl)-phenyl]-amide] is 79.4 nM; for `O=C(NC(CF)c1ccc(F)cc1F)c1ccc(Br)cc1NS(=O)(=O)c1cccc2nccnc12` (stereo not shown) [Example 74, 4-Bromo-N-[1-(2,4-difluoro-phenyl)-2-fluoro-ethyl]-2-(quinoxaline-5-sulfonylamino)-benzamide] it is 31.6 nM; for `CN(Cc1ccc(F)cc1)C(=O)c1ccc(Br)cc1NS(=O)(=O)c1cccc2nccnc12` [Example 45, 4-Bromo-N-(4-fluoro-benzyl)-N-methyl-2-(quinoxaline-5-sulfonylamino)-benzamide] it is 31.6 nM.
The molecule `C[C@@H]1COC[C@H](C)N1C(=O)c1ccc(I)cc1NS(=O)(=O)c1cccc2nccnc12` [Example 25, (R,S)-Quinoxaline-5-sulfonic acid [2-(3,5-dimethylmorpholine-4-carbonyl)-5-iodophenyl]-amide] gave a Ki of 316 nM.

The values are drawn from patent US7563895B2, “Quinoxaline compounds” (Janssen Pharmaceutica, N.V., priority 2003, dated 2009).
